This is an account of results in patent publication US12708611B2, “Diagnostic and drug screening for molecular signatures of early onset sporadic parkinson's disease” (CEDARS-SINAI MEDICAL CENTER, priority 2018, dated 2026).

The test system of series [1] is α-Synuclein. Briefly: Western blot of α-Synuclein in iPSC-derived DaNs treated with lysosomal agonists. The settings on record: for amount of α-Synuclein protein: DaNs from control lines. Format: cell-based, human. The protocol:
(§1) To test if the Inventors could reduce synuclein levels in our EOSPD DANs through activation of lysosomal specific pathways, the Inventors selected 3 lysosomal agonists. […] Starting at day 27, DaNs were treated for 3 days with the above lysosomal agonists.
(§2) The elevated phosphorylation of PKCa was absent in the undifferentiated iPSCs and no clear pattern was evident in peripheral blood from the individual patients indicating specificity to the differentiated DaNs.

In series [2] the test system is p-PKCa. Briefly: Western blot of phosphorylated PKC alpha in treated DaNs. The format is cell-based, human.
Excerpt: as §2

Series [3] relates to synuclein. The series can be described thus: Injection into ventricles of WT mice, synuclein in striatum. The format is in vivo, mouse. The settings on record: WT mice, 0.3, 3, and 30 uM injected into ventricles, 1 and 5 days post injection. How it is done: (§3) In vivo, PEP stimulates synuclein degradation. Dosage studies of 0.3, 3, and 30 uM PEP was injected into the ventricles of WT mice.

Series [4] concerns LAMP1. Briefly: Western blot of LAMP1 in PEP-treated DaNs. Format: cell-based, human. The settings on record: for LAMP1 response to treatment: PD cells.
Excerpt: as §2
PEP is described as both an activator of the pro-apoptotic […] and an inhibitor of PKCα.

Series [5] can be described thus: PKC delta signal in DaN cultures on drug treatment. Format: cell-based, human. An excerpt:
(§4) It is likely that the toxicity of PEP is more specific to highly proliferative cells whereas our differentiated neurons are largely post mitotoic.

For series [6], the system named is various cancer cell lines and primary acute myeloid leukaemia (AML) cells. The settings on record: cited from earlier work.
Series [7] deals with LC3. The series can be described thus: Western blot of LC3 in PEP-treated DaNs. The format is cell-based, human. The settings on record: PD cells.
Excerpt: as §2

Series [8] has as its system SNCA. The series can be described thus: SNCA gene expression along time-course of PEP treatment. The format is cell-based, human. The settings on record: paired time-course samples.
Excerpt: as §2

Series [9] concerns DaN cultures. The series can be described thus: LDH on drug treatment of DaN cultures (cell death). Format: cell-based, human.
Excerpt: as §4

Series [10] relates to PKC C1 domains. The settings on record: cited from earlier work.
In series [11] the test system is TH. Briefly: Injection into ventricles of WT mice, TH in striatum. The settings on record: WT mice, 0.3, 3, and 30 uM injected into ventricles, 1 and 5 days post injection. The format is in vivo, mouse. The protocol:
as §3

For series [12], the system named is cleaved caspase 3 (CC3). Briefly: Cleaved caspase 3 in time-course of PEP treatment of DaNs. Format: cell-based, human. The settings on record: PD cells, on drug treatment; listed as PEP.
Excerpt: as §2, §4

Series [13] relates to TH. Briefly: TH gene expression along time-course of PEP treatment. The format is cell-based, human. The settings on record: paired time-course samples.
Excerpt: as §2

Series [14] deals with TH enzyme. The series can be described thus: Western blot of TH enzyme in treated DaNs. Format: cell-based, human. The settings on record: both control and PD DaNs. The protocol: as §1
The test system of series [15] is PC12 cell model. The settings on record: cited from earlier work.
The subject of series [16] is P53. Briefly: Proteasome inhibition of DaN cultures, P53 western blot. Format: cell-based, human. The settings on record: DaN cultures treated 24 hrs. An excerpt: (§5) Protein degradation can be largely divided into protosomal and autophagy/lysosomal degradation pathways.
Series [17] relates to α-Synuclein. Briefly: Proteasome inhibition of DaN cultures, α-Synuclein western blot. Format: cell-based, human. The settings on record: DaN cultures treated 24 hrs.
Excerpt: as §5

[18] abbreviates: treated 3 days starting at day 27.
Setting [19] is: time-course, control and PD DaNs.

“Also recorded” adds a separate entry of the source. Where a SMILES comes first, the peptide text is derived from it. The star is where a group is joined. Cbz = O=C(OCc1ccccc1)*

Take `OC[C@H]1O[C@H](O[C@H]2O[C@H](CO)[C@@H](O)[C@H](O)[C@H]2O)[C@H](O)[C@@H](O)[C@@H]1O` [Trehalose]: the “amount of α-Synuclein protein” value in [1] (setting [18]) was “not Trehalose significantly reduced”.
Take `C/C=C(/C)C(=O)O[C@H]1C(C)=C[C@]23C(=O)[C@@H](C=C(CO)[C@@H](O)[C@]12O)[C@H]1[C@@H](C[C@H]3C)C1(C)C` [PEP005, ingenol-3-angelate]: in series [2] (control and PD DaNs, at endpoint), the “PKC alpha phosphorylation signal” value is given as “completely ablating this signal”. Also, the “elevated phosphorylation of PKCa” value in series [2] (luM PEP005 for 3 days, DaNs from all iPSC lines) is recorded as “clearly ablated”. In addition, in series [2] (setting [19]), the “time until p-PKCa is degraded in response to drug treatment” value is no more than 24 h. Besides, the “synuclein in mouse striatum” value in [3] is given as “Reduction of synuclein”. Also, the “LAMP1 response to treatment” value in series [4] is “does not appear to be replicated”; in series [4] (listed as PEP) it was “neither LAMP1 nor LC3 respond”. In addition, the “lysosomal protein LAMP1” value in series [4] (control cells) is “increase”. Also, the PKC6 signal result in series [5] is recorded as “did not observe a strong PKC6 signal”. Besides, the apoptosis entry in [6] (leukemic cell lines and primary AML cells) is given as “induces apoptosis”. Also, the proliferation result in [6] (various cancer cell lines and primary AML cells) is “inhibiting proliferation”. The “LC3 response to treatment” value in series [7] is given as “neither LAMP1 nor LC3 respond”. Besides, the “time after treatment at which SNCA is downregulated” value in [8] is 4 h. Besides, the “LDH on drug treatment” value in series [9] is recorded as “nor do the Inventors see an increase in LDH”. Besides, the “affinity for PKC C1 domains” value in [10] is “subnanomolar affinity”. The “selectivity for individual PKC isoforms” value in [10] (in vitro) was “no selectivity”. Further, the “TH in mouse striatum” value in [11] is on record as “increase in TH”. Besides, in [1] (setting [18]), the “amount of α-Synuclein protein” value is given as “significantly reduced”. Further, the synuclein levels entry in series [1] (ESOPD DaNs, treated 3 days starting at day 27) is on record as “substantially reduced”. In addition, the α-Synuclein levels result in series [1] (both control and PD DaNs) is “reduced”. In addition, in series [1] (luM PEP005 for 3 days, all treated lines), the synuclein result was “reduced synuclein”. For the same compound, in series [1] (setting [19]), the “time until α-Synuclein is degraded in response to drug treatment” value was no more than 24 h. For the same compound, the “cleaved caspase 3 (CC3) present” value in series [12] is recorded as “marked decrease; also recorded: decrease in the amount of active caspase 3”. Further, the “time after initial exposure at which TH is upregulated” value in series [13] is recorded as “roughly 8 hours”. Also, the “amount of TH enzyme present” value in series [14] is given as “increased amount of TH enzyme present”; in series [14] (listed as PEP) it was “increase in the amount of TH”.
Regarding `C=CCNc1ncnc2ccc(Br)cc12` [SMER28], the “amount of α-Synuclein protein” value in [1] (setting [18]) was “significantly reduced”. Further, the “Huntington and α-Synuclein aggregates” value in [15] was “reduce Huntington and α-Synuclein aggregates”.
Consider `CC(C)C[C@@H](C=O)NC(=O)[C@H](CC(C)C)NC(=O)[C@H](CC(C)C)NC(=O)OCc1ccccc1` [MG132] (Cbz-Leu-Leu-Leu-aldehyde), for which, in series [16], the P53 level result is “accumulation of P53”. For the same compound, in series [17], the α-Synuclein levels result was “no substantial change”.
